Consider one compound from patent publication US20220306640A1, “HYDANTOIN DERIVATIVE” (ONO PHARMACEUTICAL CO., LTD., priority 2019, published 2022).

Usually IC50 stands for the concentration that inhibits the measured activity by half. A low value points to higher potency. For orientation: inhibition means the drop in the measured response relative to a control, in per cent.

Test [1] addresses T1, DDR1 phosphorylation in T-47D (ATCC, HTB-133) cells (Homo sapiens, UniProt Q08345).
T1 construct: host or cells: T-47D
Briefly: Measurement of DDR1 phosphorylation suppression rate by using T-47D cells (p-DDR1 ELISA). It counts as cell-based. The following applies: collagen Type I 10 μg/ml, p-DDR1 (panTyr) ELISA. In a few lines: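 T-47D cells were pre-treated with compound 24 h in RPMI/0.1% BSA (0.1% DMSO, 6-point 10-fold series), then stimulated with rat tail collagen I (10 μg/ml) for 24 h at 37 °C. Lysate p-DDR1 (panTyr) was read by ELISA; IC50 derived from % inhibition versus collagen and no-collagen controls.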

Another test concerns the target KDR (Homo sapiens, UniProt P35968). Nature of the test: Evaluation of kinase selectivity: % inhibition rate of KDR at 1 μmol/L. It counts as biochemical. The following applies: compound at 1 μmol/L. The procedure:
(§1) Biological Example 3: Evaluation of Kinase Selectivity
(§2) % inhibition rate with respect to various kinases (for example KDR etc.) of 1 μmol/L the test compound is measured.
(§3) A general assay condition (substrates, cofactor, ATP concentrations and reaction time etc.) suitable for respective kinase enzyme inhibition activity test is used.
(§4) 1 Prepare the test compounds into 1 mmol/L DMSO solution. 2 Transfer 20 nL of stock to 384 assay plate. Use DMSO as High and Low controls.
(§5) 1 Prepare the 1.3× Enzyme solution containing enzyme, substrate and cofactors. 2 Add 15 μL of 1.3× Enzyme solutions to each well and incubate the plate at room temperature for 30 min. 3 Initiate the reaction by adding 5 μL of 4×ATP solution. The final volume of each well should be 20 μL. 4 Incubate the plate at room temperature for reaction and add 75 μL of stopping buffer (containing 0.5 mol/L EDTA) to terminate the reaction.
(§6) Analyze the sample of each well using EZ reader (PerkinElmer).
(§7) Calculate the % Inhibition using read conversion ratio (CR) following the equation as below.
(§8) Use well treated with DMSO as High Control Use well without enzyme as Low Control

The target in a further test is T2, Flt-3 (Homo sapiens, UniProt P36888).
T2 sequence (P36888 27-993): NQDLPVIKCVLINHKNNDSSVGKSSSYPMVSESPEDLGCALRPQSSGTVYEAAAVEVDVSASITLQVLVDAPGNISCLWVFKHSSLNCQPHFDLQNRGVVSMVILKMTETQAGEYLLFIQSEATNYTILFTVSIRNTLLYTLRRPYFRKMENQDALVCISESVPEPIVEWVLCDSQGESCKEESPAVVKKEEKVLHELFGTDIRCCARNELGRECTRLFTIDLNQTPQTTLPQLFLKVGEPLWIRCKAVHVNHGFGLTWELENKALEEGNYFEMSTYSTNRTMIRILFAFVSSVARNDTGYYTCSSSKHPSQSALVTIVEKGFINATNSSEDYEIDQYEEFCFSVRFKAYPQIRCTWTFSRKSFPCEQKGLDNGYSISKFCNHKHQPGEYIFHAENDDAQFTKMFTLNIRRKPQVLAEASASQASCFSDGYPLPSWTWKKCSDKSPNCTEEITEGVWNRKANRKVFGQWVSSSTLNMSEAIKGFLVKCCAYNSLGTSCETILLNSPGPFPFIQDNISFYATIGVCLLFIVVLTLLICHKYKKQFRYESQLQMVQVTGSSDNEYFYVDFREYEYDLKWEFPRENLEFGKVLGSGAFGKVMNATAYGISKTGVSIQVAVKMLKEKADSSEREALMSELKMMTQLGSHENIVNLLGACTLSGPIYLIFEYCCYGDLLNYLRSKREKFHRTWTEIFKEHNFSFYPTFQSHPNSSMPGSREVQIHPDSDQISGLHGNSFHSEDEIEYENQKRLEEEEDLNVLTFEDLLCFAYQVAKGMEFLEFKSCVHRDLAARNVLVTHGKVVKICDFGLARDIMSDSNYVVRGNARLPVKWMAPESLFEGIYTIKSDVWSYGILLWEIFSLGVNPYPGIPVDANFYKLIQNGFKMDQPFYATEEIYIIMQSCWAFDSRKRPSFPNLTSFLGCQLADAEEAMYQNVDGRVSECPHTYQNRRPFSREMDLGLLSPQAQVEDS
Nature of the test: Evaluation of kinase selectivity: % inhibition rate of Flt-3 at 1 μmol/L. It counts as biochemical. Conditions: compound at 1 μmol/L. The procedure:
as §1, §2, §3, §4, §5, §6, §7, §8

The target in a further test is ROCK (Homo sapiens, UniProt O75116). Briefly: Evaluation of kinase selectivity: % inhibition rate of ROCK at 1 μmol/L. It counts as biochemical. Conditions: compound at 1 μmol/L; read-out: % inhibition rate of ROCK2. How it is done:
as §1, §2, §3, §4, §5, §6, §7, §8

Sequence of KDR (P35968 20-1356, species assumed): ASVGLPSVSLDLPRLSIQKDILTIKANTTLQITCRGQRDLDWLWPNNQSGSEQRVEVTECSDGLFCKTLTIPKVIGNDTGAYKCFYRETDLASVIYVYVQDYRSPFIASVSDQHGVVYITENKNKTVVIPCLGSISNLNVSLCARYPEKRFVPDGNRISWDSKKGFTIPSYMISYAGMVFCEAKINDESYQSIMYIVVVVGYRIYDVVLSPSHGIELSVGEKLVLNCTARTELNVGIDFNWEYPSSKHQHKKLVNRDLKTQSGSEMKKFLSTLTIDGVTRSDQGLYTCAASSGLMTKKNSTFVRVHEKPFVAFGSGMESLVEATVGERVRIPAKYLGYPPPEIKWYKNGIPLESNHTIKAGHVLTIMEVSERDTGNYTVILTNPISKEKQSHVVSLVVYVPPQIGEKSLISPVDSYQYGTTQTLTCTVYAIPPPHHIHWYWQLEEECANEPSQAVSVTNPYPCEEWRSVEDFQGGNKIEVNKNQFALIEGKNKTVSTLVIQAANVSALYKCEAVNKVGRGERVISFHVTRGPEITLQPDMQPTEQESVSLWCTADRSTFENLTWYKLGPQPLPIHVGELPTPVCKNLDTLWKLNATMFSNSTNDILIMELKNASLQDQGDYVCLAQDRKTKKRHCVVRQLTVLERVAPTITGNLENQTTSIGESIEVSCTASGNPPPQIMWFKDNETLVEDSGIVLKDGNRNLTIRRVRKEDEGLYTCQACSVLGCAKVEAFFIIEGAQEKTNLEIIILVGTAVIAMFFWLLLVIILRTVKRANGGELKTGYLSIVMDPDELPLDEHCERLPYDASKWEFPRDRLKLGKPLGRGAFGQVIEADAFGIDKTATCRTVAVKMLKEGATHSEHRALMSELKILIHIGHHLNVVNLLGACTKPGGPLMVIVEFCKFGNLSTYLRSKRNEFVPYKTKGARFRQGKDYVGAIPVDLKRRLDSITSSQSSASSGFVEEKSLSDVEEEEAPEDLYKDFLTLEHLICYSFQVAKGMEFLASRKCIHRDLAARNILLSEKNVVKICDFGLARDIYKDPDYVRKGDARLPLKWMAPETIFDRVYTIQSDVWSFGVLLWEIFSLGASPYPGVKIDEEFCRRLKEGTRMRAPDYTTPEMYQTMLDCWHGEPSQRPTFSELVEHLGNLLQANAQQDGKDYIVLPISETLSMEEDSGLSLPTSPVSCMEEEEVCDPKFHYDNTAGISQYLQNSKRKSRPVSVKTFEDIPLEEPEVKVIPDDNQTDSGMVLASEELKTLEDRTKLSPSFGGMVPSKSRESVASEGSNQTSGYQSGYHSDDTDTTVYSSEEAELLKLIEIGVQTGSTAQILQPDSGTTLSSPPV
Sequence of ROCK (O75116 whole entry): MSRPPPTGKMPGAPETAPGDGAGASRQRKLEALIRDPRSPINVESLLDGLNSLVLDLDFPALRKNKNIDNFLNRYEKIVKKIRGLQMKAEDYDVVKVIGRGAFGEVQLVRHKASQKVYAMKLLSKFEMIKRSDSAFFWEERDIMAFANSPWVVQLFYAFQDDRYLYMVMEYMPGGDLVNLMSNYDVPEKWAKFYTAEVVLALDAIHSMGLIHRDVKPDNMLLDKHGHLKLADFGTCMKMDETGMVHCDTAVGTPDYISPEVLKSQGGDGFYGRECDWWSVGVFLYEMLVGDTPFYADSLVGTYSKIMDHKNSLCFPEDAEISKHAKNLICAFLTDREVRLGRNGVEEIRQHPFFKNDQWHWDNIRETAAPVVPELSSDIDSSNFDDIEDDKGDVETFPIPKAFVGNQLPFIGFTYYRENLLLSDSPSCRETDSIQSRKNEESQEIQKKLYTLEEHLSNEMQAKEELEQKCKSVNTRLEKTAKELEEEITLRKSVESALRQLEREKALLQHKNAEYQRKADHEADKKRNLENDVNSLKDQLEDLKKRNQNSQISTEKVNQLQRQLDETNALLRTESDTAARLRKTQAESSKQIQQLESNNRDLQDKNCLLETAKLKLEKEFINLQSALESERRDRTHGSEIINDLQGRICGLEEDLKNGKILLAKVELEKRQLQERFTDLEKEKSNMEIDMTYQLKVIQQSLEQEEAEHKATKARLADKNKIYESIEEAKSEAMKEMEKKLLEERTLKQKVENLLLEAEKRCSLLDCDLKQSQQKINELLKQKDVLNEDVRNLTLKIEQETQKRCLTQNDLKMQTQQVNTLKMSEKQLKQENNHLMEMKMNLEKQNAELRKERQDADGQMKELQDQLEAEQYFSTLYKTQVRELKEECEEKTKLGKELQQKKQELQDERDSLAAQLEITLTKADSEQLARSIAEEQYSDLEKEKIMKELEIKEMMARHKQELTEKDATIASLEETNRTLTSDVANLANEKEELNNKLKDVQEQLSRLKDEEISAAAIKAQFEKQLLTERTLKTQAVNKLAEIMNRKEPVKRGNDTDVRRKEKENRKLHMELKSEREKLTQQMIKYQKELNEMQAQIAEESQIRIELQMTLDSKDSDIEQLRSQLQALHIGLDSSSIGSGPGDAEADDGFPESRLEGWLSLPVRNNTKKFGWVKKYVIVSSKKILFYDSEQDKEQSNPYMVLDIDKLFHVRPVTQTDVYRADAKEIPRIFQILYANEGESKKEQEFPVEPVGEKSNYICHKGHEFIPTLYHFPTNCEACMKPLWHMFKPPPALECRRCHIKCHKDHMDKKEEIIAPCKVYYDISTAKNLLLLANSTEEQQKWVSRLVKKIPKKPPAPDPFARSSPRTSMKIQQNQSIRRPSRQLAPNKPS
T1 sequence (Q08345 19-913): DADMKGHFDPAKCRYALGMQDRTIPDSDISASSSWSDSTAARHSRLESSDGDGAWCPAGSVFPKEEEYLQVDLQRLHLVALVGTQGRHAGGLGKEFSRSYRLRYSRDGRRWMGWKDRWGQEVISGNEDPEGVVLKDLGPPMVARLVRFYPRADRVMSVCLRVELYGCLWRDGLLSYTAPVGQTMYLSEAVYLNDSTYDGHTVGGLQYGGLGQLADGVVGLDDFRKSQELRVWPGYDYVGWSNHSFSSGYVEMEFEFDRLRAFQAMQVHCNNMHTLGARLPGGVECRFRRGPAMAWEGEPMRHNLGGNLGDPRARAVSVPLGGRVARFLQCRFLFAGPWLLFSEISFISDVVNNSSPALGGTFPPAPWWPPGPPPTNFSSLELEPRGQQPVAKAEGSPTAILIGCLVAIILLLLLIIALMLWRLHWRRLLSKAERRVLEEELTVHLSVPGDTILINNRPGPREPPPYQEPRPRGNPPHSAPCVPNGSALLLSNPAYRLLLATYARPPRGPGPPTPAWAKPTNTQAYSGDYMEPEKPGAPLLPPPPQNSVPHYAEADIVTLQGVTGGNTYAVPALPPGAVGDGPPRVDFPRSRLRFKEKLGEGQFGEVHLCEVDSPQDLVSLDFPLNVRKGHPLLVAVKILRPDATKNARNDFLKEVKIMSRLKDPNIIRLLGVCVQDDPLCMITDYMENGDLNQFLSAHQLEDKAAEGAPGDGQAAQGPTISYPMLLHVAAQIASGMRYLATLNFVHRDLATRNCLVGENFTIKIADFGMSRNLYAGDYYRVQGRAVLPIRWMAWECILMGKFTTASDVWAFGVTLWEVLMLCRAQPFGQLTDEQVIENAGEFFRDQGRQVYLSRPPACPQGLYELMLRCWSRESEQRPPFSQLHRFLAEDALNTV

`Cc1cc(Oc2ccnc(N)n2)ccc1N1C(=O)CN(c2ccc(F)c(OC(F)(F)F)c2)C1=O` [Example 3(110), 3-{4-[(2-amino-4-pyrimidinyl)oxy]-2-methylphenyl}-1-[4-fluoro-3-(trifluoromethoxy)phenyl]-2,4-imidazolidinedione] returned a 50% inhibitory concentration (IC50) in test [1] of 1 nM. For the same compound, the inhibition at 1 µM at KDR was 4%; on Flt-3, 6%; on ROCK, -2%.
